ChEMBL document CHEMBL1157055, “Limonoids and tirucallane derivatives from the seeds of a krishna mangrove, Xylocarpus moluccensis” (2010)
Activity calls are given as the source filed them. No cut-off for these calls is given here.

How the values were obtained:
Brontispa longissima [1] = test: Insecticidal activity against Brontispa longissima Gestro at 100 ug/ml; assay type: functional, organism-based
Brontispa longissima [2] = test: Insecticidal activity against Brontispa longissima Gestro at 100 ug/ml after 96 hrs; assay type: functional
Brontispa longissima [3] = test: Insecticidal activity against Brontispa longissima Gestro at 100 ug/ml after 72 hrs; assay type: functional

SMILES	Activity (Brontispa longissima [1])	Activity (Brontispa longissima [2])	Activity (Brontispa longissima [3])
CC[C@H](C)C(=O)O[C@@]12C(=O)C3=C4CC(=O)O[C@@H](c5ccoc5)[C@]4(C)CC[C@@H]3[C@]3(C)[C@@H](CC(=O)OC)[C@](C)(C[C@@]31O)[C@@H]2OC(=O)C(C)C	inactive	–	–
CC[C@H](C)C(=O)O[C@@]12C[C@]3(C)[C@H](OC(=O)C(C)C)[C@]1(O)C(=O)C1=C(CC[C@]4(C)C1=CC(=O)O[C@H]4c1ccoc1)[C@]2(C)[C@H]3CC(=O)OC [MOLUCCENSINS H]	–	27.6%	20.7%
CC[C@H](C)C(=O)O[C@H]1[C@@]2(C)C[C@@]3(OC(=O)[C@@H](C)CC)[C@](C)([C@H]4CC[C@]5(C)C(=C4C(=O)[C@@]13O)CC(=O)O[C@H]5c1ccoc1)[C@H]2CC(=O)OC	inactive	–	–
CC[C@H](C)C(=O)O[C@@]12C(=O)C3=C(CC[C@]4(C)C3=CC(=O)O[C@H]4c3ccoc3)[C@]3(C)[C@@H](CC(=O)OC)[C@](C)(C[C@]13O)[C@@H]2OC(=O)C(C)C	inactive	–	–
